Patent publication US20070276045A1, “Anti-Bacterial Compounds” (priority 2004, published 2007)
≈ marks a conversion by molar mass, not a printed value. Like-named read-outs stand apart in the source and are kept apart here.

What was measured:
Corynebacterium Ax 7 [1] = experiment: Bacteriostatic activity (MIC), microtiter broth turbidity; assay type: cell-based, Corynebacterium group G; conditions: read-out: MIC (minimal inhibitory concentration)
Source text: (§1) The bacteriostatic effects of the compounds of the present invention are compared with those of known anti-bacterial agents against human skin bacteria. Typical bacteria (Corynebacterium and Staphylococcus strains) isolated from the human axilla and commercially available strains are used.
(§2) The different axilla bacteria are isolated from the human axilla according to techniques known in the art, in particular according to standard microbiological practice. They are taxonomically identified by cell morphology, gram-reaction and biochemical tests included in the Api coryne test kit (BioMerieux, France). Strain Staphylococcus epidermidis Ax25 is identified by fatty acid methyl ester analysis (FAME; German type strain collection DSMZ, Germany) . […] The strains are maintained on Tryptic soy broth plates, this standard medium being supplemented with 5 g per Litre of Polyoxyethylene Sorbitan Monooleate (Tween™ 80). Plates are incubated at 36° C. for a period of 48 hours. The bacteria are then swabbed from the plates and suspended in 4 ml of Muller-Hinton broth supplemented with 100 mg of Tween™ 80 per Litre (MH-Tween) and incubated again at 36° C. for 16 hours. Following incubation the bacterial suspensions are diluted in MH-Tween to obtain a final cell density of 10^7 colony forming units per ml. These diluted suspensions of the different test organisms are distributed to different columns of a microtiter plate, 100 μl per well. The test compounds are dissolved in dimethylsulfoxide (DMSO) at various test concentrations and 2.5 μl of these different DMSO solutions are added to the different wells of the test plates. The plates are covered with plastic films and incubated for 24 h at 36° C. with shaking at 250 rpm. The turbidity developing in the microtiter platesi then examined after 24 h to determine microbial growth.

[2] = system: Staphylococcus aureus DSM 799; experiment: as above; assay type: cell-based; conditions: read-out: MIC (minimal inhibitory concentration)
Source text: as §1, §2

Escherichia coli DSM 682 = experiment: as above; assay type: cell-based; conditions: read-out: MIC (minimal inhibitory concentration)
Source text: as §1, §2

S. epidermidis Ax 25 [3] = experiment: as above; assay type: cell-based; conditions: Staphylococcus epidermidis, read-out: MIC (minimal inhibitory concentration)
Source text: as §1, §2

C. xerosis DSM 20170 [4] = experiment: as above; assay type: cell-based; conditions: Corynebacterium xerosis, read-out: MIC (minimal inhibitory concentration)
Source text: as §1, §2

Corynebacterium Ax 15 [5] = experiment: as above; assay type: cell-based, Corynebacterium jeikeium; conditions: read-out: MIC (minimal inhibitory concentration)
Source text: as §1, §2

Corynebacterium Ax 7 [6] = experiment: Bactericidal activity (MBC), 60 min contact; assay type: cell-based, Corynebacterium group G; conditions: AX7, 1 h, inoculum completely killed after 60 min incubation, read-out: MBC (minimal bactericidal concentration)
Source text: (§3) The different axilla bacteria are isolated from the human axilla according to techniques known in the art, in particular according to standard microbiological practice. They are taxonomically identified by cell morphology, gram-reaction and biochemical tests included in the Api coryne test kit (BioMerieux, France). Strain Staphylococcus epidermidis Ax25 is identified by fatty acid methyl ester analysis (FAME; German type strain collection DSMZ, Germany) . Escherichia coli DSM 682, Staphylococcus aureus DSM 799, and Corynebacterium xerosis DSM 20170 are obtained from the German-type strain collection. The strains are maintained on Tryptic soy broth plates, this standard medium being supplemented with 5 g per Litre of Polyoxyethylene Sorbitan Monooleate (TweenTM 80). Plates are incubated at 36° C. for a period of 48 hours. The bacteria are then swabbed from the plates and suspended in 4 ml of Muller-Hinton broth supplemented with 100 mg of TweenTM 80 per Litre (MH-Tween) and incubated again at 36° C. for 16 hours. Following incubation the bacterial suspensions are diluted in MH-Tween to obtain a final cell density of 10^7 colony forming units per ml. These diluted suspensions of the different test organisms are distributed to different columns of a microtiter plate, 100 μl per well. The test compounds are dissolved in dimethylsulfoxide (DMSO) at various test concentrations and 2.5 μl of these different DMSO solutions are added to the different wells of the test plates. The plates are covered with plastic films and incubated for 24 h at 36° C. with shaking at 250 rpm. The turbidity developing in the microtiter […] examined after 24 h to determine microbial growth. […] The bacteria are grown, harvested and diluted under the same conditions as described in the example above and added to microtiter plates (100 μl per well), each well containing 2.5 μl of the different DMSO solutions as described above. After 60 min incubation, 0.5 μl of the bacterial culture from each well (corresponding to 5×10^3 cfu in the control treatment) is transferred to a fresh microtiter plate which contained 100 μl per well of fresh medium. The plates are covered with plastic films and incubated for 24 h at 36° C. with shaking at 250 rpm. The turbidity developing in the microtiter plates is then examined after 24 h to determine microbial growth. The minimal concentration of test compounds which completely killed the bacterial inoculum is determined as the minimal bactericidal concentration (MBC).

S. epidermidis Ax 25 [7] = experiment: Bactericidal activity (MBC), 60 min contact; assay type: cell-based; conditions: Staphylococcus epidermidis, AX25, 1 h, inoculum completely killed after 60 min incubation, read-out: MBC (minimal bactericidal concentration)
Source text: as §3

C. xerosis DSM 20170 [8] = experiment: Bactericidal activity (MBC), 60 min contact; assay type: cell-based; conditions: Corynebacterium xerosis, DSM20170, 1 h, inoculum completely killed after 60 min incubation, read-out: MBC (minimal bactericidal concentration)
Source text: as §3

Corynebacterium Ax 15 [9] = experiment: Bactericidal activity (MBC), 60 min contact; assay type: cell-based, Corynebacterium jeikeium; conditions: AX15, 1 h, inoculum completely killed after 60 min incubation, read-out: MBC (minimal bactericidal concentration)
Source text: as §3

[10] = Staphylococcus aureus, DSM799, 24 h
[11] = AX7, Corynebacterium Ax 7, growth inhibited by at least 80%, 24 h at 36° C.
[12] = DSM799, Staphylococcus aureus DSM 799, growth inhibited by at least 80%, 24 h at 36° C.
[13] = DSM682, Escherichia coli DSM 682, growth inhibited by at least 80%, 24 h at 36° C.
[14] = AX25, S. epidermidis Ax 25, growth inhibited by at least 80%, 24 h at 36° C.
[15] = DSM20170, C. xerosis DSM 20170, growth inhibited by at least 80%, 24 h at 36° C.
[16] = AX15, Corynebacterium Ax 15, growth inhibited by at least 80%, 24 h at 36° C.

SMILES | MIC (Corynebacterium Ax 7 [1]; Corynebacterium, AX7, 24 h) [µg/mL] | MIC [2, 10] [µg/mL] | MIC (Escherichia coli DSM 682; Escherichia coli, DSM682, 24 h) [µg/mL] | MIC (S. epidermidis Ax 25 [3]; AX25, 24 h) [µg/mL] | MIC (C. xerosis DSM 20170 [4]; DSM20170, 24 h) [µg/mL] | MIC (Corynebacterium Ax 15 [5]; Corynebacterium, AX15, 24 h) [µg/mL] | MIC (Corynebacterium Ax 7 [1]; [11]) [µg/mL] | MIC [2, 12] [µg/mL] | MIC (Escherichia coli DSM 682; [13]) [µg/mL] | MIC (S. epidermidis Ax 25 [3]; [14]) [µg/mL] | MIC (C. xerosis DSM 20170 [4]; [15]) [µg/mL] | MIC (Corynebacterium Ax 15 [5]; [16]) [µg/mL] | MBC (Corynebacterium Ax 7 [6]) [µg/mL] | MBC (S. epidermidis Ax 25 [7]) [µg/mL] | MBC (C. xerosis DSM 20170 [8]) [µg/mL] | MBC (Corynebacterium Ax 15 [9]) [µg/mL]
CCCCCCCCCCCC(=O)OCC(O)CO (centres unmarked) [C1, Dodecanoic acid 2,3-dihydroxy-propyl ester, reference compound] | 160 (≈ 0.583 mM) | 80 (≈ 0.292 mM) | > 5000 | < 80 | 320 (≈ 1.17 mM) | 1250 (≈ 4.56 mM) | – | – | – | – | – | – | – | – | – | –
CCCCC(CC)COCC(O)CO (centres unmarked) [C2, 3-(2-Ethyl-hexyloxy)-propane-1,2-diol, reference compound] | 1250 (≈ 6.12 mM) | 630 (≈ 3.08 mM) | 630 (≈ 3.08 mM) | 1250 (≈ 6.12 mM) | 630 (≈ 3.08 mM) | 1250 (≈ 6.12 mM) | – | – | – | – | – | – | – | – | – | –
CC(C)=CCCC(C)=CCCC(C)=CCO [C3, Farnesol, reference compound] | – | – | – | – | – | – | 140 (≈ 0.63 mM) | 160 (≈ 0.72 mM) | > 10000 | 160 (≈ 0.72 mM) | 80 (≈ 0.36 mM) | 160 (≈ 0.72 mM) | – | – | – | –
Oc1cc(Cl)ccc1Oc1ccc(Cl)cc1Cl [C4, Triclosan, reference compound] | 30 (≈ 0.104 mM) | 5 (≈ 0.0173 mM) | 5 (≈ 0.0173 mM) | 0.15 (≈ 0.000518 mM) | 15 (≈ 0.0518 mM) | 30 (≈ 0.104 mM) | – | – | – | – | – | – | – | – | – | –
CC(COCC(=O)O)Cc1ccc(C(C)(C)C)cc1 (centres unmarked) [compound 1, [3-(4-tert.-Butyl-phenyl)-2-methyl-propoxy]-acetic acid] | – | – | – | – | – | – | 625 (≈ 2.36 mM) | 625 (≈ 2.36 mM) | 2500 (≈ 9.46 mM) | 625 (≈ 2.36 mM) | 313 (≈ 1.18 mM) | 1250 (≈ 4.73 mM) | 2500 (≈ 9.46 mM) | ≥ 5000 | 2500 (≈ 9.46 mM) | ≥ 5000
CCCCC(CC)COCC(=O)O (centres unmarked) [compound 4, (2-Ethyl-hexyloxy)-acetic acid] | – | – | – | – | – | – | 1250 (≈ 6.64 mM) | 625 (≈ 3.32 mM) | 2500 (≈ 13.3 mM) | 625 (≈ 3.32 mM) | 884 (≈ 4.7 mM) | 1250 (≈ 6.64 mM) | 2500 (≈ 13.3 mM) | ≥ 5000 | ≥ 5000 | ≥ 5000
CCCCCCC(CCCC)COCC(=O)O (centres unmarked) [compound 5, (2-Butyl-octyloxy)-acetic acid] | – | – | – | – | – | – | 160 (≈ 0.655 mM) | 160 (≈ 0.655 mM) | > 2500 | 160 (≈ 0.655 mM) | 80 (≈ 0.327 mM) | 310 (≈ 1.27 mM) | 1250 (≈ 5.12 mM) | > 2000 | > 2500 | > 2500
CCCCCCCCC(CCCCCC)COCC(=O)O (centres unmarked) [compound 6, (2-Hexyl-decyloxy)-acetic acid] | – | – | – | – | – | – | 5 (≈ 0.0166 mM) | 5 (≈ 0.0166 mM) | > 2500 | 5 (≈ 0.0166 mM) | 4 (≈ 0.0133 mM) | 5 (≈ 0.0166 mM) | 20 (≈ 0.0666 mM) | 20 (≈ 0.0666 mM) | 40 (≈ 0.133 mM) | 40 (≈ 0.133 mM)
CCCCC(CC)C(=O)OCC(=O)O (centres unmarked) [compound 7, 2-Ethyl-hexanoic acid carboxymethyl ester] | – | – | – | – | – | – | 1250 (≈ 6.18 mM) | 1250 (≈ 6.18 mM) | 2500 (≈ 12.4 mM) | 1250 (≈ 6.18 mM) | 1250 (≈ 6.18 mM) | 1250 (≈ 6.18 mM) | > 2500 | > 2500 | > 2500 | > 2500
CCCCCCC(CCCC)C(=O)OCC(=O)O (centres unmarked) [compound 8, 2-Butyl-octanoic acid carboxymethyl ester] | – | – | – | – | – | – | 160 (≈ 0.619 mM) | 80 (≈ 0.31 mM) | 2500 (≈ 9.68 mM) | 1250 (≈ 4.84 mM) | 80 (≈ 0.31 mM) | 80 (≈ 0.31 mM) | 1250 (≈ 4.84 mM) | 1250 (≈ 4.84 mM) | 2500 (≈ 9.68 mM) | 2500 (≈ 9.68 mM)
CCCCCCCCC(CCCCCC)C(=O)OCC(=O)O (centres unmarked) [compound 9, 2-Hexyl-decanoic acid carboxymethyl ester] | – | – | – | – | – | – | 5 (≈ 0.0159 mM) | 5 (≈ 0.0159 mM) | > 2500 | 10 (≈ 0.0318 mM) | 7 (≈ 0.0223 mM) | 5 (≈ 0.0159 mM) | 40 (≈ 0.127 mM) | 40 (≈ 0.127 mM) | 80 (≈ 0.254 mM) | 80 (≈ 0.254 mM)
CCCCCCC(CCCC)C(=O)NCC(=O)O (centres unmarked) [compound 10, (2-Butyl-octanoylamino)-acetic acid] | – | – | – | – | – | – | 1250 (≈ 4.86 mM) | 1250 (≈ 4.86 mM) | 1250 (≈ 4.86 mM) | 1250 (≈ 4.86 mM) | 630 (≈ 2.45 mM) | 1250 (≈ 4.86 mM) | 1250 (≈ 4.86 mM) | 2500 (≈ 9.71 mM) | 2500 (≈ 9.71 mM) | > 2500
